Assay results reported in US20250115628A1, “FLUORINATED FLUOROPHORES” (HOWARD HUGHES MEDICAL INSTITUTE, priority 2023, published 2025).

Assays:
HaloTag® protein = biological target: T1, HaloTag® protein (Rhodococcus rhodochrous, UniProt P0A3G2, A155T/A167V/A172T/A224E/C128F/C176G/D78G/E160K/E257K/H272N/K175M/K195N/L47V/L88M/N227D/P291S/S2A/S58T/T264A/Y273L/Y87F); assay: Absorption increase of ligands on binding HaloTag® protein; format: biochemical
T1 construct: 6xHis; made in house; host or cells: bacterial expression (pRSET-A vector, Invitrogen)
Method: The bacterial expression vector pRSET-A (Invitrogen) was used to recombinantly express HaloTag® (HT7; Promega).^7 The soluble 6×His-Tagged HaloTag® protein was affinity purified by immobilized metal affinity chromatography (IMAC) on a 5^−mL Fast Flow HiTrap Sepharose 6 column (Cytiva) with a 0-200 mM imidazole elution gradient using an ÄKTA Avant Protein Purification System (Cytiva).
HaloTag® protein was used as a […] solution in 1× TBS. Absorption measurements were performed in 1.4^−mL semi-micro quartz cuvettes. A […] solution of HaloTag® ligand 65HTL or 91HTL was prepared in 10 mM HEPES, pH 7.3 containing 0.1 mg mL-1 CHAPS. An aliquot of HaloTag® protein (2 equiv, […] [HaloTag®]) was added. To examine chromogenicty (FIG. 5B, left panel), the resulting mixture was incubated until a consistent absorption signal/spectrum was observed (<60 min for 65HTL); an equivalent volume of 1× TBS blank was added to separate “−HT” samples in place of enzyme to record the ligand-only absorption. Spectra are averages (n=2). To compare rates of HaloTag® labeling (FIG. 5B, right panel) absorption at λabs (645 nm for 65HTL, 621 nm for 91HTL) was recorded at regular intervals (0.1 min, 0-5 min; 1 min, 5-120 min; 5 min, 2-24 h) immediately following addition of HaloTag® protein.

[1] = tested on: U2OS cells stably expressing HaloTag®-histone H2B fusion protein; assay: Loading experiments using ligands 65HTL and 91HTL (JF552-HaloTag® ligand chase); format: cell-based; conditions: 200 nM, 0-4 h
Method: U2OS cells (ATCC) and U2OS cells stably expressing an integrated HaloTag®-histone H2B fusion protein (U2OS·H2B·HaloTag®) were cultured in Dulbecco's modified Eagle medium (DMEM, phenol red-free; Life Technologies) supplemented with 10% (v/v) fetal bovine serum (FBS, Life Technologies), 1 mM GlutaMAX (Life Technologies) and maintained at 37° C. in a humidified 5% (v/v) CO2 environment. These cell lines undergo regular mycoplasma testing by the Janelia Cell Culture Facility. For mitochondrial imaging using the HaloTag® system, U2OS cells were transiently transfected using nucleofection (Lonza) with a plasmid constitutively expressing a HaloTag®-TOMM20 fusion protein, which is located on the outer mitochondrial membrane. […]
For loading curve experiments, U2OS·H2B·HaloTag® stable cells were incubated with 200 nM 65HTL and 91HTL for 0-4 h at 37° C., washed 3× with dye-free media then chased with 200 nM JF552-HaloTag® ligand 15 for 30 min at 37° C., washed 3× with dye-free media and fixed with 4% paraformaldehyde in 0.1 M phosphate buffer, pH 7.4 for 15 min at 37° C. […] Fluorescence was quantified as the integrated density of nuclear signals from confocal image stack projections analyzed in FIJI;^82 n=100 nuclear signals per compound.

[2] = tested on: ScAMPI (SNAP-tag®-Epac1-HaloTag®) expressed in U2OS cells; assay: cAMP FLIM-FRET sensor ScAMPI (fluorescence lifetime imaging); format: cell-based
Source text: The Epac-based cAMP sensor “Epac-S^H189”, was obtained from Addgene (Plasmid #170348). This sensor consists of a mTurquoise fluorescent protein and a tdDark Venus protein linked via the Epac1 protein.
To construct the SNAP-tag®-Epac1-HaloTag® sensor, the sequence encoding the tdDark Venus domain in Epac-S^H189 was first replaced with the HaloTag® sequence using Nhe1 and Asc1 fragment ligation (NEB), creating a construct with mTurquoise and HaloTag® flanking the Epac1 domain (i.e, mTurquoise-Epac1-HaloTag®). […]
To evaluate this semisynthetic system in cells, U2OS cells (ATCC) were maintained in DMEM (Corning) containing 10% v/v FBS (ATCC), 1% v/v L-glutamine (Gibco) and 1% v/v Pen/Strep (Gibco). […] Fluorescence lifetime imaging was performed with a Leica SP8 Falcon using LASX software for image acquisition and analysis. […] Fluorescence emission was collected by the HyD detector. […] Mean amplitude weighted lifetime image (τmean) was calculated by fixing the two lifetimes and performing an image fit for their respective amplitudes (a1 and a2). FRET efficiency was calculated using the mean lifetime obtained in absence (τmean,-forskolin) and (τmean,+forskolin) presence of forskolin as 1^−(τmean,-forskolin/τmean,+forskolin).

T1 sequence (P0A3G2 other isoform, or with tags, fused parts or gaps with the stated changes): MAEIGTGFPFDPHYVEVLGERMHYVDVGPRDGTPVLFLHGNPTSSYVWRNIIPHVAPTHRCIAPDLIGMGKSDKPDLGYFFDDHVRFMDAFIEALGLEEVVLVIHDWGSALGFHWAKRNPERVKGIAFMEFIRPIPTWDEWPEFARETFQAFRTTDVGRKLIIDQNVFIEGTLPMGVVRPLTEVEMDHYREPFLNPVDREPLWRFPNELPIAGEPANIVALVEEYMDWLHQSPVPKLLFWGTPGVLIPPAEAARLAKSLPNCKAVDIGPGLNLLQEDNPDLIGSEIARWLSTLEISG

SMILES: C=C/C=C(C=C)/[N+](C)=C1\C=CC2=C(c3c(F)c(C(=O)NCCOCCOCCCCCCCl)c(F)c(F)c3C(=O)[O-])c3ccc(N(C)c4ccccc4)cc3C(C)(C)C2=C1 [65HTL, JQ645-HaloTag® ligand]
- HaloTag® labeling in vitro compared with 91HTL (HaloTag® protein; absorbance vs. time upon addition to HaloTag® protein): substantially faster
- ε of HaloTag® conjugate (HaloTag® protein; after incubation with HaloTag® protein): 110,000 M^−1 cm^−1
- λabs used for HaloTag® labeling read-out (HaloTag® protein; ligand in 10 mM HEPES, pH 7.3 with CHAPS, HaloTag® protein added): 645 nm
- increase in absorptivity on incubation with HaloTag® protein (HaloTag® protein; ligand with 2 equiv HaloTag® protein, 10 mM HEPES, pH 7.3): 47 fold
- HaloTag® labeling in cells compared with 91HTL [1]: substantially faster
- FRET quenching of the JFX612 donor [2]: effective FRET quencher
